According to patent US9751885B2, “Cyclopropanamine compound and use thereof” (Takeda Pharmaceutical Company Limited, priority 2012, dated 2017):
Where “and” joins values, the source holds several entries; their conditions need not be identical. Equal entries are not always repeated. Structures can show the parent of a compound that is named as a salt. Where two headings read alike, the source gives them in different places. Marks after values point to notes of the source that are not given here.

Experiments:
[1] = Evaluation of hippocampal distribution in mouse; assay type: in vivo; conditions: male ICR mice, 10 mg/kg oral; for concentration at 0.5 h: 0.5 hr after administration; for concentration at 1 h: 1 hr after administration
In short: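 Male ICR mice dosed orally at 10 mg/kg as suspension in 0.5% methylcellulose/0.02% citric acid/water. Plasma and hippocampus sampled together at 0.5, 1 or 1.5 h; LC/MS/MS concentrations gave hippocampus/plasma ratio.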

[2] = tested on: white blood cell number, red blood cell number, platelet number; assay: Evaluation of blood cell number in mouse; assay type: in vivo; conditions: oral, Day 2 after administration
In short: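 Male ICR mice dosed orally at 1, 10, 50 or 100 mg/kg (suspension in 0.5% methylcellulose/0.02% citric acid/water); whole blood collected on Day 2. White cell, red cell and platelet counts per unit volume by automated haematology analyser, expressed as % of mean of untreated control group.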

MAO-B enzyme = MAO-B enzyme (Homo sapiens (Human), UniProt P27338); assay: Measurement of MAO-B inhibitory activity (MAO-Glo Assay); conditions: read-out: MAO-B IC50 value;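 also: luminescence read-out, compound preincubated 10 min with enzyme then reacted 60 min at room temperature, inhibition relative to enzyme reaction without compound, blank lacking enzyme and compound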
Method: The MAO-B inhibitory activity evaluation described below followed the protocol of MAO-Glo (registered trademark) Assay of Promega KK.
A test compound dissolved in 4% DMSO was added by 12.5 μL to 25 μL reaction solution (100 mM HEPES (pH 7.5), 5% glycerol, 10% DMSO) containing 400 ng of MAO-B enzyme (Sigma-Aldrich Co. LLC.), and the mixture was reacted at room temperature for 10 min. […] After reaction at room temperature for 60 min, Luciferine detection reagent (Promega KK) (50 μL) was added to terminate the reaction. After reaction at room temperature for 20 min with stirring, the luminescence was measured by Envision (PerkinElmer). The MAO-B inhibitory rate (%) of the test compound was calculated by the following formula. inhibitory rate(%)=(1−(test compound count−blank)÷(control−blank))×100
The count of the MAO-B enzyme reaction mixture under compound non-addition conditions is indicated as control, and the count under compound non-addition and MAO-B enzyme non-addition conditions is indicated as blank.

human LSD1(172-833) = human LSD1(172-833) (Homo sapiens (Human), UniProt O60341); assay: Measurement of LSD1 inhibitory activity (time-resolved fluorescence, biotin-histone H3 mono methylated K4 peptide); assay type: biochemical
In short: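 Remaining signal detected by TR-FRET after 60 min with europium anti-histone H3 antibody and streptavidin-XL665 in potassium fluoride/0.1% BSA.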

MAO-A enzyme = MAO-A enzyme (Homo sapiens (Human), UniProt P21397); assay: Measurement of MAO-A inhibitory activity (MAO-Glo Assay); assay type: biochemical
[3] = tested on: Gad1 H3K4me2 level in rat primary culture neurons; assay: Gad1 H3K4 methylation induction activity in rat primary culture neurons (ChIP-qPCR); assay type: cell-based; conditions: Neuron, 72 h, control without compound = 100%
Method: Gad1 H3K4 Methylation Induction Activity in Rat Primary Culture Neurons
Thereafter, the compound was added to final concentrations of 1 or 10 μM, and the cells were further cultured for 3 days. The culture supernatant was aspirated, ice-cold PBS was added, and the cell suspension was collected on ice using CELL SCRAPER (IWAKI). […] (750 μL). Furthermore, 0.3% NP40/cell lysis buffer 1 (750 μL) was added, and the cells were lysed by incubating for 5 min on ice.
Using the DNA obtained by the chromatin immunoprecipitation as a template, quantitative PCR of the Gad1 gene upstream genomic region was performed, and the measurement value was taken as the Gad1 H3K4me2 level. […] The Gad1 H3K4me2 induction by the compound was expressed by the H3K4me2 level when the compound was added, as compared to the H3K4me2 level of the control (without addition of the compound) as 100%.

[4] = hippocampus, read-out: hippocampus concentration (mean)
[5] = plasma, read-out: plasma concentration (mean)
[6] = compound 1 μM, 3 days, rat primary culture neurons, read-out: Gad1 H3K4me2 induction activity (%)
[7] = compound 10 μM, 3 days, rat primary culture neurons, read-out: Gad1 H3K4me2 induction activity (%)
[8] = Rattus norvegicus, read-out: Gad1 H3K4me2 induction activity (%), compound 1 μM, 3 days, rat primary culture neurons
[9] = Rattus norvegicus, read-out: Gad1 H3K4me2 induction activity (%), compound 10 μM, 3 days, rat primary culture neurons

MAO-A enzyme, sequence (P21397 whole entry): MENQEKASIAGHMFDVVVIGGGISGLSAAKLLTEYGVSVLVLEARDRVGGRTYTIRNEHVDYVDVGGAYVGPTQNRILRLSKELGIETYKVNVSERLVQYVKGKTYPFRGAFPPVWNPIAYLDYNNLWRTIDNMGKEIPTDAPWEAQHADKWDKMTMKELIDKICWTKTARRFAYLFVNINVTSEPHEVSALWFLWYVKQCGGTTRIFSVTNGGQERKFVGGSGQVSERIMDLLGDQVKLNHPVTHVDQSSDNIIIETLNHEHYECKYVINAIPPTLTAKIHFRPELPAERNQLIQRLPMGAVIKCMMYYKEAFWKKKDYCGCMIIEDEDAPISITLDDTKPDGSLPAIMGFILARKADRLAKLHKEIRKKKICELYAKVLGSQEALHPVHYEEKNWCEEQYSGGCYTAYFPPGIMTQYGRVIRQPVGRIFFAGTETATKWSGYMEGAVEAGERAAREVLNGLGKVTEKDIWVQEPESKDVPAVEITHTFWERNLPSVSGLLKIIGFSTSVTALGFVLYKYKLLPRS
MAO-B enzyme, sequence (P27338 whole entry): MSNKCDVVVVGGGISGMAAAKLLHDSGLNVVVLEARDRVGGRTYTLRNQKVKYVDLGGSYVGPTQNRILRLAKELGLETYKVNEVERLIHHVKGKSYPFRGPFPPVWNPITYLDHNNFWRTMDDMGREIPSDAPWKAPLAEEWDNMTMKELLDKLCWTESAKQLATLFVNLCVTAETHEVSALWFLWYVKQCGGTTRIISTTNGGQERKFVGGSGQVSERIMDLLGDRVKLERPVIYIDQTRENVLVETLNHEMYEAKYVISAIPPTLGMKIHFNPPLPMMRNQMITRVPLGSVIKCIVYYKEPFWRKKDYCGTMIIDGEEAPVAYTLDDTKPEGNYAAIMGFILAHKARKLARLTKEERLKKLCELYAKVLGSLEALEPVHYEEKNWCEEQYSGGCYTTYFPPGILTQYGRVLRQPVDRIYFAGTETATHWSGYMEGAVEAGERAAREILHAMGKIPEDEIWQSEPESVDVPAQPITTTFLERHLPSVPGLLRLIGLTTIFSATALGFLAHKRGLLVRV

Cc1nnc(NC(=O)c2ccc(F)c([C@@H]3C[C@H]3NCC3CC3)c2)s1 (relative stereo) [Example 109, 3-(trans-2-((cyclopropylmethyl)amino)cyclopropyl)-4-fluoro-N-(5-methyl-1,3,4-thiadiazol-2-yl)benzamide dihydrochloride]
concentration at 0.5 h [1, 4]: 1610 ng/g
concentration at 0.5 h [1, 5]: 1250 ng/mL
platelet number, percentage of compound administration group compared to control group, mean ([2]; 10 mg/kg): 94.3%
red blood cell number, percentage of compound administration group compared to control group, mean ([2]; 10 mg/kg): 96.3%
white blood cell number, percentage of compound administration group compared to control group, mean ([2]; 10 mg/kg): 88.3%
platelet number, percentage of compound administration group compared to control group, mean ([2]; 100 mg/kg): 97.8%
red blood cell number, percentage of compound administration group compared to control group, mean ([2]; 100 mg/kg): 98.2%
white blood cell number, percentage of compound administration group compared to control group, mean ([2]; 100 mg/kg): 107.4%
IC50 (MAO-B enzyme): > 10 µM
IC50 (human LSD1(172-833)): < 0.1 µM
IC50 (MAO-A enzyme): > 10 µM
activity at 1 µM [3, 6]: 117%
activity at 10 µM [3, 7]: 96%

O=C(Nc1ccc(-c2ncccn2)cc1)c1cccc([C@@H]2C[C@H]2NCC2CC2)c1 (relative stereo) [Example 58, 3-(trans-2-((cyclopropylmethyl)amino)cyclopropyl)-N-(4-(pyrimidin-2-yl)phenyl)benzamide dihydrochloride]
platelet number, percentage of compound administration group compared to control group, mean ([2]; 10 mg/kg): 99.4%
red blood cell number, percentage of compound administration group compared to control group, mean ([2]; 10 mg/kg): 99.7%
white blood cell number, percentage of compound administration group compared to control group, mean ([2]; 10 mg/kg): 94.2%
platelet number, percentage of compound administration group compared to control group, mean ([2]; 50 mg/kg): 102.9^a %
red blood cell number, percentage of compound administration group compared to control group, mean ([2]; 50 mg/kg): 101.3^a %
white blood cell number, percentage of compound administration group compared to control group, mean ([2]; 50 mg/kg): 85.8^a %
IC50 (MAO-B enzyme): > 10 µM
IC50 (human LSD1(172-833)): < 0.1 µM
IC50 (MAO-A enzyme): > 10 µM
activity at 1 µM [3, 8]: 126%
activity at 10 µM [3, 9]: 116%

O=C(Nc1cnn(CC2CC2)c1)c1cccc([C@@H]2C[C@H]2NCC2CC2)c1 (relative stereo) [Example 77, 3-(trans-2-((cyclopropylmethyl)amino)cyclopropyl)-N-(1-(cyclopropylmethyl)-1H-pyrazol-4-yl)benzamide dihydrochloride]
platelet number, percentage of compound administration group compared to control group, mean ([2]; 10 mg/kg): 99.6%
red blood cell number, percentage of compound administration group compared to control group, mean ([2]; 10 mg/kg): 98.2%
white blood cell number, percentage of compound administration group compared to control group, mean ([2]; 10 mg/kg): 147.9%
platelet number, percentage of compound administration group compared to control group, mean ([2]; 100 mg/kg): 96.6%
red blood cell number, percentage of compound administration group compared to control group, mean ([2]; 100 mg/kg): 100.9%
white blood cell number, percentage of compound administration group compared to control group, mean ([2]; 100 mg/kg): 98.2%
IC50 (MAO-B enzyme): > 10 µM
IC50 (human LSD1(172-833)): < 0.1 µM
IC50 (MAO-A enzyme): > 10 µM
activity at 1 µM [3, 8]: 165%
activity at 10 µM [3, 9]: 163%

O=C(NC1CCC(F)(F)CC1)c1cccc([C@@H]2C[C@H]2NC2CCOCC2)c1 (relative stereo) [Example 177, N-(4,4-difluorocyclohexyl)-3-(trans-2-(tetrahydro-2H-pyran-4-ylamino)cyclopropyl)benzamide hydrochloride]
concentration at 1 h [1, 4]: 324 ng/g
concentration at 1 h [1, 5]: 630 ng/mL
platelet number, percentage of compound administration group compared to control group, mean ([2]; 10 mg/kg): 101.3%
red blood cell number, percentage of compound administration group compared to control group, mean ([2]; 10 mg/kg): 94.5%
white blood cell number, percentage of compound administration group compared to control group, mean ([2]; 10 mg/kg): 136.9%
platelet number, percentage of compound administration group compared to control group, mean ([2]; 100 mg/kg): 97.4%
red blood cell number, percentage of compound administration group compared to control group, mean ([2]; 100 mg/kg): 99.0%
white blood cell number, percentage of compound administration group compared to control group, mean ([2]; 100 mg/kg): 97.1%
activity at 1 µM [3, 8]: 340%
activity at 10 µM [3, 9]: 200%

O=C(NC1CCN(CC(F)(F)F)CC1)c1cccc([C@@H]2C[C@H]2NCC2CC2)c1 (relative stereo) [Example 108, 3-(trans-2-((cyclopropylmethyl)amino)cyclopropyl)-N-(1-(2,2,2-trifluoroethyl)piperidin-4-yl)benzamide dihydrochloride]
concentration at 0.5 h [1, 4]: 983 ng/g
concentration at 0.5 h [1, 5]: 684 ng/mL
platelet number, percentage of compound administration group compared to control group, mean ([2]; 10 mg/kg): 101.9%
red blood cell number, percentage of compound administration group compared to control group, mean ([2]; 10 mg/kg): 99.0%
white blood cell number, percentage of compound administration group compared to control group, mean ([2]; 10 mg/kg): 127.7%
platelet number, percentage of compound administration group compared to control group, mean ([2]; 100 mg/kg): 94.2%
red blood cell number, percentage of compound administration group compared to control group, mean ([2]; 100 mg/kg): 98.7%
white blood cell number, percentage of compound administration group compared to control group, mean ([2]; 100 mg/kg): 129.4%
activity at 1 µM [3, 8]: 384%
activity at 10 µM [3, 9]: 268%

O=C(NC1CCCC1)c1cccc([C@@H]2C[C@H]2NC2CCOCC2)c1 (relative stereo) [Example 168, N-cyclopentyl-3-(trans-2-(tetrahydro-2H-pyran-4-ylamino)cyclopropyl)benzamide hydrochloride]
concentration at 0.5 h [1, 4]: 439 ng/g
concentration at 0.5 h [1, 5]: 451 ng/mL
platelet number, percentage of compound administration group compared to control group, mean ([2]; 10 mg/kg): 106.8%
red blood cell number, percentage of compound administration group compared to control group, mean ([2]; 10 mg/kg): 106.5%
white blood cell number, percentage of compound administration group compared to control group, mean ([2]; 10 mg/kg): 97.6%
platelet number, percentage of compound administration group compared to control group, mean ([2]; 100 mg/kg): 99.0%
red blood cell number, percentage of compound administration group compared to control group, mean ([2]; 100 mg/kg): 101.1%
white blood cell number, percentage of compound administration group compared to control group, mean ([2]; 100 mg/kg): 93.6%
activity at 1 µM [3, 8]: 227%
activity at 10 µM [3, 9]: 263%

Cc1ncc(NC(=O)c2cccc([C@@H]3C[C@H]3NC3CCOCC3)c2)s1 (relative stereo) [Example 212, N-(2-methyl-1,3-thiazol-5-yl)-3-(trans-2-(tetrahydro-2H-pyran-4-ylamino)cyclopropyl)benzamide dihydrochloride]
IC50 (MAO-B enzyme): > 10 µM
IC50 (human LSD1(172-833)): < 0.1 µM
IC50 (MAO-A enzyme): > 10 µM
activity at 1 µM [3, 6]: 201%
activity at 10 µM [3, 7]: 289%

Cc1nnc(NC(=O)c2cccc([C@@H]3C[C@H]3NC3CCOCC3)c2)s1 (relative stereo) [Example 165, N-(5-methyl-1,3,4-thiadiazol-2-yl)-3-(trans-2-(tetrahydro-2H-pyran-4-ylamino)cyclopropyl)benzamide fumarate]
concentration at 1 h [1, 4]: 376 ng/g
concentration at 1 h [1, 5]: 1840 ng/mL
platelet number, percentage of compound administration group compared to control group, mean ([2]; 10 mg/kg): 99.3%
red blood cell number, percentage of compound administration group compared to control group, mean ([2]; 10 mg/kg): 100.9%
white blood cell number, percentage of compound administration group compared to control group, mean ([2]; 10 mg/kg): 104.4%
platelet number, percentage of compound administration group compared to control group, mean ([2]; 100 mg/kg): 85.6%
red blood cell number, percentage of compound administration group compared to control group, mean ([2]; 100 mg/kg): 103.2%
white blood cell number, percentage of compound administration group compared to control group, mean ([2]; 100 mg/kg): 87.0%
activity at 1 µM [3, 8]: 272%
activity at 10 µM [3, 9]: 373%

Cc1nnc(NC(=O)c2cccc([C@@H]3C[C@H]3NCC3CC3)c2)s1 (relative stereo) [Example 96, 3-(trans-2-((cyclopropylmethyl)amino)cyclopropyl)-N-(5-methyl-1,3,4-thiadiazol-2-yl)benzamide hydrochloride]
concentration at 1 h [1, 4]: 602 ng/g
concentration at 1 h [1, 5]: 1060 ng/mL
platelet number, percentage of compound administration group compared to control group, mean ([2]; 1 mg/kg): 100.9^b %
red blood cell number, percentage of compound administration group compared to control group, mean ([2]; 1 mg/kg): 107.4^b %
white blood cell number, percentage of compound administration group compared to control group, mean ([2]; 1 mg/kg): 116.6^b %
platelet number, percentage of compound administration group compared to control group, mean ([2]; 10 mg/kg, hydrochloride): 102.1% and 101.0^c %
red blood cell number, percentage of compound administration group compared to control group, mean ([2]; 10 mg/kg, hydrochloride): 97.9% and 102.6^c %
white blood cell number, percentage of compound administration group compared to control group, mean ([2]; 10 mg/kg, hydrochloride): 61.5% and 122.4^c %
platelet number, percentage of compound administration group compared to control group, mean ([2]; 100 mg/kg): 102.4%
red blood cell number, percentage of compound administration group compared to control group, mean ([2]; 100 mg/kg): 100.7%
white blood cell number, percentage of compound administration group compared to control group, mean ([2]; 100 mg/kg): 65.5%
activity at 1 µM [3, 8]: 122%
activity at 10 µM [3, 9]: 151%
